# Results published in patent US10113114B2, “Apparatus and method for coating particulate material” (BASF Corporation, priority 2013, dated 2018).
# Tested on: red imported fire ant (Solenopsis invicta) workers
# Details: all rates tested (0.5 to 3 X label rate)
# Source text: Testing with red imported fire ant (Solenopsis invicta, RIFA), Argentine ant (Linepthema humile), and odorous house ant (OHA) workers. Ten inch plastic arenas (inside walls coated with Fluon® to prevent escape) were provided a layer of moistened play sand. A band of mulch was placed across the arena near one side. Between the closest side and the mulch, a micro-centrifuge tube with a universal ant diet was placed. In the larger open area of the arena was placed a water vial and a small weigh boat with either corn grit+soybean oil (RIFA) or 20% honey water (Argentine ant and OHA). Approximately 100 ants were placed in each arena. Mortality was evaluated at 6 or 7 days.
structure (smiles),measurement,value
CN/C(=N/CC1CCOC1)N[N+](=O)[O-] (stereo not shown) [dinotefuran],efficacy of the insecticide on mulch (in words),effective at all rates tested
